Usually IC50 stands for the point on the concentration scale where inhibition reaches its midpoint. A word on the EC50: it is the concentration needed to bring the measured effect to its halfway point.

Like-named read-outs stand apart in the source and are kept apart here.

Experiment [1] concerns the target T1, Full-length wild type HIV-1 integrase (SF1) (Human immunodeficiency virus type 1 group M subtype B, UniProt P04585).
T1 construct: made in house; host or cells: E. coli BL21 (DE3)
The experiment is described as follows: Integrase strand-transfer scintillation proximity assay. The format is biochemical. An excerpt: Integrase Strand-Transfer Scintillation Proximity Assay
Oligonucleotides: Oligonucleotide #1-5′-(biotin)[…]-3′ (SEQ ID NO: 1) and oligonucleotide #2-5′-[…]-3′ (SEQ ID NO: 2), were synthesized by TriLink BioTechnologies, Inc. (San Diego, Calif.). The annealed product represents preprocessed viral ds-DNA derived from the LTR U5 sequence of the viral genome. A ds-DNA control to test for non-specific interactions was made using a 3′ di-deoxy derivative of oligonucleotide #1 annealed to oligonucleotide #2. The CA overhang at the 5′ end of the non-biotinylated strand of the ds-DNA was created artificially by using a complimentary DNA oligonucleotide shortened by 2 base pairs. This configuration eliminates the requisite 3′ processing step of the integrase enzyme prior to the strand-transfer mechanism.
Host ds-DNA was prepared as an unlabeled and [^3H]-thymidine labeled product from annealed oligonucleotide #3-5-[…]-3′ (SEQ ID NO: 3), and oligonucleotide #4-1-5′-[…]-3′ (SEQ ID NO: 4), both synthesized by TriLink BioTechnologies, Inc. (San Diego, Calif.). The annealed product had overhanging 3′ ends of poly(dA). Host DNA was custom radiolabeled by PerkinElmer Life Sciences Inc. (Boston, Mass.) using an enzymatic method with a 12/1 ratio of [methyl-^3H]dTTP/cold ds-DNA to yield 5′-blunt end ds-DNA with a specific activity of >900 Ci/mmol. The radiolabeled product was purified using a NENSORB cartridge and stored in stabilized aqueous solution (PerkinElmer). The final radiolabeled product had six [^3H]-thymidine nucleotides at both 5′ ends of the host ds-DNA.
Reagents: Streptavidin-coated polyvinyltoluene (PVT) SPA beads were purchased from Amersham Biosciences (Piscataway, N.J.). Cesium chloride was purchased from Shelton Scientific, Inc. (Shelton, Conn.). White, polystyrene, flat-bottom, non-binding surface, 96-well plates were purchased from Corning. All other buffer components were purchased from Sigma (St. Louis, Mo.) unless otherwise indicated.
Enzyme Construction Full-length wild type HIV-1 integrase (SF1) sequence (amino acids 1-289) was constructed in a pET24a vector (Novagen, Madison, Wis.). The construct was confirmed through DNA sequencing.
Enzyme Purification Full length wild-type HIV Integrase was expressed in E. coli BL21 (DE3) cells and induced with 1 mM isopropyl-1 thio-β-D-galactopyranoside (IPTG) when cells reached an optical density between 0.8-1.0 at 600 nm. Cells were lysed by microfluidation in 50 mM HEPES pH 7.0, 75 mM NaCl, 5 mM DTT, 1 mM 4-(2-Aminoethyl)benzenesulfonylfluoride HCl (AEBSF). Lysate was then centrifuged 20 minutes at 11 k rpm in GSA rotor in Sorvall RC-5B at 4° C. Supernant was discarded and pellet resuspended in 50 mM HEPES pH 7.0, 750 mM NaCl, 5 mM DTT, 1 mM AEBSF and homogenized in a 40 mL Dounce homogenizer for 20 minutes on ice. Homogenate was then centrifuged 20 minutes at 11 k rpm in SS34 rotor in Sorvall RC-5B at 4° C. Supernant was discarded and pellet resuspended in 50 mM HEPES pH 7.0, 750 mM NaCl, 25 mM CHAPS, 5 mM DTT, 1 mM AEBSF. Preparation was then centrifuged 20 minutes at 11 k rpm in SS34 rotor in Sorvall RC-5B at 4° C.
Supernant was then diluted 1:1 with 50 mM HEPES pH 7.0, 25 mM CHAPS, 1 mM DTT, 1 mM AEBSF and loaded onto a Q-Sepharose column pre-equilibrated with 50 mM HEPES, pH 7.0, 375 mM NaCl, 25 mM CHAPS, 1 mM DTT, 1 mM AEBSF. The flow through peak was collected and NaCl diluted to 0.1 M with 50 mM HEPES pH 7.0, 25 mM CHAPS, 1 mM DTT, 0.5 mM AEBSF and loaded onto a SP-Sepharose column pre-equilibrated with 50 mM HEPES pH 7.0, 100 mM NaCl, 25 mM CHAPS, 1 mM DTT, 0.5 mM AEBSF. After washing the column with the equilibration buffer, a 100 to 400 mM NaCl gradient was run. The eluted integrase was concentrated and run on a S-300 gel diffusion column using 50 mM HEPES pH 7.0, 500 mM NaCl, 25 mM CHAPS, 1 mM DTT, 0.5 mM AEBSF. The peak from this column was concentrated to 0.76 mg/mL and stored at −70° C. and later used for strand transfer assays. […]

The test system of experiment [2] is RF strain of HIV-1 in CEM-SS cells. The experiment can be described thus: HIV-1 cell protection assay (XTT dye reduction). Format: cell-based. The procedure: HIV-1 Cell Protection Assay
The antiviral activities of potential modulator compounds (test compounds) were determined in HIV-1 cell protection assays using the RF strain of HIV-1, CEM-SS cells, and the XTT dye reduction method (Weislow, O, S. et al., J. Natl. Cancer Inst 81: 577-586 (1989)). Subject cells were infected with HIV-1 RF virus at an moi of to affect about a 90% kill (for example, an moi in the range of from about 0.025 to about 0.819) or mock infected with medium only and added at 2×10^4 cells per well, with the addition of approximately 200 μL of medium, into 96 well plates containing half-log dilutions of test compounds. Six days later, 50 μl of XTT solution (1 mg/ml XTT tetrazolium and 20 nM phenazine methosulfate) were added to the wells and the plates were reincubated for four hours. Viability, as determined by the amount of XTT formazan produced, was quantified spectrophotometrically by absorbance at 450 nm.
Data from CPE assays were expressed as the percent of formazan produced in compound-treated cells compared to formazan produced in wells of uninfected, compound-free cells. The fifty percent effective concentration (EC50) was calculated as the concentration of compound that affected an increase in the percentage of formazan production in infected, compound-treated cells to 50% of that produced by uninfected, compound-free cells. The 50% cytotoxicity concentration (CC50) was calculated as the concentration of compound that decreased the percentage of formazan produced in uninfected, compound-treated cells to 50% of that produced in uninfected, compound-free cells. The therapeutic index was calculated by dividing the cytotoxicity (CC50) by the antiviral activity (EC50).
In general terms: Formazan colour is commonly taken as a measure of viable cells.

Setting [3] is: integrase strand-transfer SPA, read-out: IC50.
Where [4] appears, read: Human immunodeficiency virus 1, 144 h, HIV-1 RF, CEM-SS cells, XTT, six days, read-out: EC50.
Where [5] appears, read: Human immunodeficiency virus 1, CEM-SS, 144 h.

For the compound `O=C(NO)c1cc2c(NS(=O)(=O)c3ccc(Cl)s3)cn(Cc3ccc(F)cc3)c2cn1` [Example 21, 3-{[(5-chloro-2-thienyl)sulfonyl]amino}-1-(4-fluorobenzyl)-N-hydroxy-1H-pyrrolo[2,3-c]pyridine-5-carboxamide], in experiment [1] (setting [3]), the IC50 was determined as 102 nM. The EC50 in experiment [2] (setting [4]) was 71 nM.
Regarding `CN(O)C(=O)c1cc2c(S(=O)(=O)N3CCNC(=O)C3)cn(Cc3ccc(F)cc3F)c2cn1` [Example 41, 1-(2,4-difluorobenzyl)-N-hydroxy-N-methyl-3-[(3-oxopiperazin-1-yl)sulfonyl]-1H-pyrrolo[2,3-c]pyridine-5-carboxamide], in experiment [1], it took 1150 nM to reach half-maximal inhibition (IC50). In experiment [2] (setting [4]), the EC50 amounted to 3300 nM.
For `CCN1CCCC1CNC(=O)c1cn(Cc2ccc(F)cc2)c2cnc(C(=O)NOC)cc12` (stereo not shown) [Example 8, N3~-[(1-ethylpyrrolidin-2-yl)methyl]-1-(4-fluorobenzyl)-N~5~- methoxy-1H-pyrrolo[2,3-c]pyridine-3,5-dicarboxamide], the IC50 in experiment [1] (setting [3]) was 1400 nM. In experiment [2] (setting [5]), the EC50 worked out at 700 nM.
With `CONC(=O)c1cc2c(C(=O)N3CCC[C@@H]3CO)cn(Cc3ccc(F)cc3)c2cn1` [Example 46], the 50% inhibitory concentration (IC50) in experiment [1] (setting [3]) was 895 nM. The compound also showed an EC50 in experiment [2] (setting [5]) of 56 nM.
As for `CONC(=O)c1cc2c(C(=O)NC(CC(=O)NC3CC3)C3CC3)cn(Cc3ccc(F)cc3)c2cn1` (stereo not shown) [Example 15, N~3~-[1-cyclopropyl-3-(cyclopropylamino)-3-oxopropyl]-1-(4-fluorobenzyl)-N~5~- methoxy-1H-pyrrolo[2,3-c]pyridine-3,5-dicarboxamide], the IC50 in experiment [1] (setting [3]) was 300 nM. The compound further yielded an EC50 in experiment [2] (setting [5]) of 120 nM.
For `O=C(NO)c1cc2c(C(=O)NCC34CCCN3CCC4)cn(Cc3ccc(F)cc3)c2cn1` [Example 25, 1-(4-fluorobenzyl)-N~5~- hydroxy-N~3~-(tetrahydro-1H-pyrrolizin-7a(5H)-ylmethyl)-1H-pyrrolo[2,3-c]pyridine-3,5-dicarboxamide], the IC50 in experiment [1] (setting [3]) was 152 nM. The EC50 in experiment [2] (setting [5]) worked out at 250 nM.
As for `NC(=O)[C@@H]1CCCN1S(=O)(=O)c1cn(Cc2ccc(F)cc2F)c2cnc(C(=O)NO)cc12` [Example 36, 3-{[(2S)-2-(aminocarbonyl)pyrrolidin-1-yl]sulfonyl}-1-(2,4-difluorobenzyl)-N-hydroxy-1H-pyrrolo[2,3-c]pyridine-5-carboxamide], in experiment [1] (setting [3]), the IC50 was found to be 197 nM. In addition, in experiment [2] (setting [4]), the EC50 turned out to be 340 nM.
Turning to `CN(O)C(=O)c1cc2c(NS(=O)(=O)c3ccccc3)cn(Cc3ccc(F)cc3)c2cn1` [Example 4, 1-(4-fluorobenzyl)-N-hydroxy-N-methyl-3-[(phenylsulfonyl)amino]-1H-pyrrolo[2,3-c]pyridine-5-carboxamide], the IC50 in experiment [1] (setting [3]) came out at 360 nM. Moreover, the EC50 in experiment [2] (setting [4]) was 42 nM.
For `CN(O)C(=O)c1cc2c(C(=O)NC(CC(=O)NC3CC3)C3CC3)cn(Cc3ccc(F)cc3)c2cn1` (stereo not shown) [Example 18, N~3~-[1-cyclopropyl-3-(cyclopropylamino)-3-oxopropyl]-1-(4-fluorobenzyl)-N~5~- hydroxy-N~5~-methyl-1H-pyrrolo[2,3-c]pyridine-3,5-dicarboxamide], the IC50 in experiment [1] (setting [3]) came out at 230 nM. In experiment [2] (setting [5]), the EC50 turned out to be 460 nM.
As for `CCN1CCCC1CNC(=O)c1cn(Cc2ccc(F)cc2)c2cnc(C(=O)NO)cc12` (stereo not shown) [Example 31, N~3~-[(1-ethylpyrrolidin-2-yl)methyl]-1-(4-fluorobenzyl)-N~5~- hydroxy-1H-pryyolo[2,3-c]pyridine-3,5-dicarboxamide], the IC50 in experiment [1] (setting [3]) came out at 141 nM. The compound also returned an EC50 in experiment [2] (setting [5]) of 200 nM.
For `CS(=O)(=O)Nc1cn(Cc2ccc(F)cc2)c2cnc(C(=O)NO)cc12` [Example 5, 1-(4-fluorobenzyl)-N-hydroxy-3-[(methylsulfonyl)amino]-1H-pyrrolo[2,3-c]pyridine-5-carboxamide], in experiment [1] (setting [3]), the IC50 was found to be 56 nM. For the same compound, the EC50 in experiment [2] (setting [4]) stood at 5.2 nM.
For `CN(C)S(=O)(=O)c1cn(Cc2ccc(F)cc2)c2cnc(C(=O)NO)cc12` [Example 34], in experiment [1] (setting [3]), the IC50 was determined as 136 nM. Moreover, the EC50 in experiment [2] (setting [4]) was found to be 47 nM.
In the case of `O=C(NO)c1cc2c(C(=O)NCCCN3CCCC3=O)cn(Cc3ccc(F)cc3)c2cn1` [Example 29, 1-(4-fluorobenzyl)-N~5~- hydroxy-N~3~-[3-(2-oxopyrrolidin-1-yl)propyl]-1H-pyrrolo[2,3-c]pyridine-3,5-dicarboxamide], the IC50 in experiment [1] (setting [3]) was determined as 70 nM. This compound also returned an EC50 in experiment [2] (setting [5]) of 130 nM.
On to `CONC(=O)c1cc2c(C(=O)NCc3cnn(C)c3C)cn(Cc3ccc(F)cc3)c2cn1` [Example 11, N~3~-[(1,5-dimethyl-1H-pyrazol-4-yl)methyl]-1-(4-fluorobenzyl)-N~5~- methoxy-1H-pyrrolo[2,3-c]pyridine-3,5-dicarboxamide], for which the IC50 in experiment [1] (setting [3]) stood at 530 nM. Besides, in experiment [2] (setting [5]), the EC50 was determined as 67 nM.
Take `CONC(=O)c1cc2c(S(=O)(=O)NCCN3CCOCC3)cn(Cc3ccc(F)cc3F)c2cn1` [Example 40, 1-(2,4-difluorobenzyl)-N-methoxy-3-{[(2-morpholin-4-ylethyl)amino]sulfonyl}-1H-pyrrolo[2,3-c]pyridine-5-carboxamide]: the IC50 in experiment [1] (setting [3]) stood at 760 nM. Moreover, the EC50 in experiment [2] (setting [4]) stood at 52 nM.
Turning to `CONC(=O)c1cc2c(C(=O)N3CCC(N(C)C)C3)cn(Cc3ccc(F)cc3)c2cn1` (stereo not shown) [Example 12, 3-{[3-(dimethylamino)pyrrolidin-1-yl]carbonyl)-1-(4-fluorobenzyl)-N-methoxy-1H-pyrrolo[2,3-c]pyridine-5-carboxamide], in experiment [1] (setting [3]), the IC50 worked out at 801 nM. The same compound had an EC50 in experiment [2] (setting [5]) of 140 nM.
As for `O=C(NO)c1cc2c(NS(=O)(=O)c3ccc4c(c3)CNCC4)cn(Cc3ccc(F)cc3)c2cn1` [Example 20, 1-(4-fluorobenzyl)-N-hydroxy-3-[(1,2,3,4-tetrahydroisoquinolin-7-ylsulfonyl)amino]-1H-pyrrolo[2,3-c]pyridine-5-carboxamide], the IC50 in experiment [1] (setting [3]) turned out to be 370 nM. Further, in experiment [2] (setting [4]), the EC50 was found to be 580 nM.

The values are drawn from patent publication US20090170846A1, “INHIBITORS OF THE HIV INTEGRASE ENZYME” (Pfizer Inc, priority 2005, published 2009).
